Test results from the supplement of paper PMC10307832.

Columns and labels:
Experiment in all cases: relative viability (nuclei count vs DMSO), 5 days (fraction); higher = more cells survive
Carboplatin + Navitoclax = compound: C1CC(C1)(C(=O)O)C(=O)O.[NH2-].[NH2-].[Pt+2] [Carboplatin] + CC1(C)CCC(c2ccc(Cl)cc2)=C(CN2CCN(c3ccc(C(=O)NS(=O)(=O)c4ccc(N[C@H](CCN5CCOCC5)CSc5ccccc5)c(S(=O)(=O)C(F)(F)F)c4)cc3)CC2)C1 [Navitoclax] (partner 0.5 µM)
Outline: (§1)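 Relative viability was taken as the ratio of nuclei in treated wells to nuclei in vehicle wells. Lung cancer cell lines in 1536-well plates received compounds by pin tool one day after seeding, either one drug alone or a fixed anchor-drug dose plus five library-drug doses (not always all listed) in √10 steps. Nuclei were counted on 4× images after 5 days of treatment, and values are medians of duplicate plates.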

MLN4924 + Linsitinib = compound: NS(=O)(=O)OC[C@@H]1C[C@@H](n2ccc3c(N[C@H]4CCc5ccccc54)ncnc32)C[C@@H]1O [MLN4924] + C[C@]1(O)C[C@@H](c2nc(-c3ccc4ccc(-c5ccccc5)nc4c3)c3c(N)nccn32)C1 [Linsitinib] (partner 1 µM)
Outline: as §1

MLN4924 + Trametinib = compound: NS(=O)(=O)OC[C@@H]1C[C@@H](n2ccc3c(N[C@H]4CCc5ccccc54)ncnc32)C[C@@H]1O [MLN4924] + CC(=O)Nc1cccc(-n2c(=O)n(C3CC3)c(=O)c3c(Nc4ccc(I)cc4F)n(C)c(=O)c(C)c32)c1 [Trametinib] (partner 0.02 µM)
Outline: as §1

GSK126 + OSI-027 = compound: CC[C@H](C)N1C=C(C2=C(C=C(C=C21)C3=CN=C(C=C3)N4CCNCC4)C(=O)NCC5=C(C=C(NC5=O)C)C)C [GSK126] + COc1cccc2cc(-c3nc([C@H]4CC[C@H](C(=O)O)CC4)n4ncnc(N)c34)[nH]c12 [OSI-027] (partner 0.5 µM)
Outline: as §1

Cell Line	relative viability (Carboplatin + Navitoclax; first compound 0.08 µM)	relative viability (Carboplatin + Navitoclax; first compound 0.253 µM)	relative viability (Carboplatin + Navitoclax; first compound 0.8 µM)	relative viability (Carboplatin + Navitoclax; first compound 2.53 µM)	relative viability (Carboplatin + Navitoclax; first compound 8 µM)	relative viability (MLN4924 + Linsitinib; first compound 0.04 µM)	relative viability (MLN4924 + Linsitinib; first compound 0.1265 µM)	relative viability (MLN4924 + Linsitinib; first compound 0.4 µM)	relative viability (MLN4924 + Linsitinib; first compound 1.265 µM)	relative viability (MLN4924 + Linsitinib; first compound 4 µM)	relative viability (MLN4924 + Trametinib; first compound 0.04 µM)	relative viability (MLN4924 + Trametinib; first compound 0.1265 µM)	relative viability (MLN4924 + Trametinib; first compound 0.4 µM)	relative viability (MLN4924 + Trametinib; first compound 1.265 µM)	relative viability (MLN4924 + Trametinib; first compound 4 µM)	relative viability (GSK126 + OSI-027; first compound 0.08 µM)	relative viability (GSK126 + OSI-027; first compound 0.253 µM)	relative viability (GSK126 + OSI-027; first compound 0.8 µM)	relative viability (GSK126 + OSI-027; first compound 2.53 µM)	relative viability (GSK126 + OSI-027; first compound 8 µM)
NCI-H1437	1.07	1.14	1.09	1.05	0.97	0.959	0.828	0.466	0.221	0.103	0.547	0.483	0.502	0.226	0.218	0.913	0.854	0.77	0.844	0.828
NCI-H1975	1.19	1.26	1.01	1.09	1.18	0.991	1.17	0.825	0.234	0.226	0.344	0.544	0.44	0.38	0.312	0.867	0.81	0.747	0.749	0.722
BEN	0.0584	0.0591	0.0635	0.0642	0.0703	0.765	0.464	0.319	0.17	0.188	1	0.733	0.548	0.372	0.287	0.324	0.349	0.281	0.288	0.287
NCI-H441	0.657	1.19	0.447	0.545	0.526	0.47	0.374	0.205	0.111	0.159	0.576	0.508	0.598	0.152	0.19	0.949	0.686	0.637	0.677	0.543
HCC-44	0.949	0.99	0.914	0.786	0.874	0.561	0.219	0.199	0.156	0.129	0.962	0.844	0.814	0.447	0.368	0.623	0.624	0.595	0.562	0.706
NCI-H3122	1.03	0.988	1.01	1.02	0.97	0.958	0.429	0.291	0.172	0.115	0.25	0.162	0.204	0.136	0.098	1.23	0.953	0.963	1.01	0.896
NCI-H1355	1.02	1.01	0.853	0.912	0.921	0.875	0.704	0.789	0.207	0.211	0.474	0.477	0.444	0.243	0.232	0.412	0.362	0.418	0.453	0.44
NCI-H1734	0.873	0.905	0.873	0.729	0.676	1.01	1.09	0.519	0.178	0.155	0.705	0.715	0.181	0.123	0.126	0.681	0.532	0.665	0.579	0.602
LXF-289	0.933	0.982	0.932	0.903	0.927	0.785	0.645	0.417	0.224	0.143	0.568	0.419	0.464	0.216	0.131	0.838	0.86	0.784	0.877	0.768
RERF-LC-KJ	1.29	0.739	0.822	0.915	0.652	0.64	0.463	0.198	0.188	0.234	0.8	0.66	0.365	0.215	0.203	0.648	0.66	0.597	0.652	0.575
NCI-H2087	0.944	1.03	0.944	1.01	0.895	0.775	0.776	0.311	0.172	0.187	0.23	0.217	0.291	0.129	0.0965	0.674	0.466	0.595	0.706	0.786
NCI-H1793	0.496	0.585	0.388	0.453	0.435	1.12	0.857	0.845	0.327	0.168	0.417	0.426	0.508	0.376	0.294	0.288	0.241	0.318	0.248	0.32
HCC-827	0.999	0.98	0.927	0.982	0.918	0.801	0.527	0.468	0.228	0.211	0.738	0.601	0.526	0.193	0.156	0.803	0.83	0.768	0.768	0.776
NCI-H1395	1.16	1.2	0.799	0.845	0.591	0.991	0.771	0.605	0.384	0.377	1.07	1.02	0.836	0.392	0.385	0.679	0.561	0.648	0.704	0.649
NCI-H23	0.887	0.9	0.789	0.835	0.588	0.632	0.405	0.203	0.135	0.149	0.403	0.391	0.326	0.201	0.167	0.697	0.6	0.668	0.682	0.559
HARA	1.1	1.16	1.08	1.07	1.09	0.568	0.455	0.481	0.092	0.0886	0.671	0.79	0.357	0.114	0.111	0.543	0.541	0.476	0.466	0.392
